# Experiments:
# [1] = test system: Pyricularia orzae; assay: whole plant or invertebrate; type: in vivo, Pyricularia orzae (rice plant, Chukyo Asahi); settings: in Oryza sativa, 120 h, read-out: Protective value
# [2] = test system: Collectotrichum lagenarium; assay: Test 3: protective value on cucumber inoculated with Collectotrichum lagenarium; type: in vivo, Collectotrichum lagenarium (cucumber plant, Suyo); settings: 500 ppm, 10 ml sprayed; lesions six days after inoculation
# Experimental: In each unglazed pot having a diameter of 9 cm, cucumber plant (Suyo) was cultured. At one leaf stage, 10 ml. of each solution of each active ingredient having a concentration of 500 ppm was sprayed by a spray gun. After maintaining the pot in a green-house at 24° to 25° C. for one day, each spore suspension of Collectotrichum lagenarium was sprayed. Six days after the inoculation, number of lesions on the first leaf of seedling was observed. The protective value was calculated as Test 1.
# [3] = test system: Sphaerotheca fuliginea; assay: whole plant or invertebrate; type: in vivo, Sphaerotheca fuliginea (cucumber plant, Suyo); settings: Podosphaera fuliginea, in Cucumis sativus, 240 h; read-out: Protective value
# [4] = test system: Rhizoctonia solani; assay: whole plant or invertebrate; type: in vivo, Rhizoctonia solani (rice plant, Chukyo Asahi); settings: in Oryza sativa, 120 h, read-out: Preventive value
# [5] = test system: Botrytis cinerea; assay: Test 9: protective value on cucumber inoculated with Botrytis cinerea; type: in vivo, Botrytis cinerea (cucumber plant, Suyo); settings: 72 h, 250 ppm, 10 ml sprayed, lesion length three days after inoculation
# Experimental: In each unglazed pot having a diameter of 9 cm, cucumber plant (Suyo) was cultured. At one leaf stage, 10 ml. of each solution of each active ingredient having a concentration of 250 ppm was sprayed by a spray gun. After maintaining the pot in a green-house at 24° to 25° C. for one day, a disc (punched agar disc) obtained by culturing Botrytis cinerea on a potato-glucose-agar medium (PDA medium) was put on the leaf of cucumber to inoculate them. Three days after the inoculation, lengths of lesions were measured and each protective value was calculated as Test 2.
# In accordance with the test, except the concentration of the active ingredient was decreased, the comparative tests of Compound No. 7 and Reference compound were carried out.
# [6] = test system: Venturia inaequalie; assay: Test 5: minimum growth inhibition concentration on PDA medium; type: cell-based; settings: fungus D: Venturia inaequalie
# Experimental: (§1) A mixture of 9 ml. of a potato-glucose-agar medium (PDA medium) and 1 ml. of each active ingredient was poured into each Petri-dish to be solidified. […] The following fungi were used.
# [7] = test system: Alternaria solani; assay: as above; type: cell-based; settings: fungus C: Alternaria solani
# Experimental: as §1
# [8] = test system: Diaporthe citri; assay: as above; type: cell-based; settings: fungus B: Diaporthe citri
# Experimental: as §1
# [9] = test system: Phytophthora infestans; type: cell-based; settings: PDA medium; fungus A: Phytophthora infestans
# [10] = test system: Plasmopara viticola; assay: whole plant or invertebrate; type: in vivo, Plasmopara viticola (cucumber plant, Suyo); settings: in Cucumis sativus, 144 h, read-out: Protective value
# [11] = test system: Tetranychus telarius (L); assay: Test 6: mortality of larvae and adults of Tetranychus telarius on kidney bean leaf; type: in vivo; settings: foliar, 72 h, leaf dipped, wettable powder of Composition No. 5, three days after treatment, read-out: Percent mortality
# Experimental: Young seedling of kidney bean treated to cut off leaves except one primordial leaf was transplanted in a cup and about 30 of larvae and adults of Tetranychus telarius (L) were inoculated on the primordial leaf. This was dipped for 10 seconds in each solution obtained by diluting each wettable powder of Composition No. 5 containing each active ingredient with water at the concentration of 800 ppm and was dried in air and was kept in a constant temperature chamber with lighting at 28° C. Three days after the treatment, mortality was measured and each percent mortality was calculated as follows. [formula]
# [12] = test system: Callosobruchus chinensis; assay: Test 7: mortality of adults of Callosobruchus chinensis on film in Petri-dish; type: in vivo; settings: 400 μg per Petri-dish of 9 cm, 25° C., 24 hours, read-out: Percent mortality
# Experimental: Each active ingredient was dissolved in acetone to prepare each solution having the specific concentration. 1 Ml. of the solution (400 μg. of each active ingredient) was uniformly adhered on the inner bottom surface of Petri-dish having a diameter of 9 cm to form a film. In the dish, 15 of adults of Callosobruchus chinensis were charged and the dish was covered with a cap and kept in a constant temperature chamber at 25° C. for 24 hours. Each percent mortality was calculated as that of Test 6.
Structure (SMILES),pest or weed control at 100 ppm [1] [%],Protective value [2] [%],pest or weed control at 500 ppm [3] [%],pest or weed control at 100 ppm [4] [%],pest or weed control at 250 ppm [5] [%],minimum growth inhibition concentration [6],minimum growth inhibition concentration [7],minimum growth inhibition concentration [8],minimum growth inhibition concentration [9],pest or weed control at 500 ppm [10] [%],mortality at 800 ppm [11] [%],mortality at 400 µg/dish [12] [%]
O=[N+]([O-])c1cc(C(F)(F)F)c(Cl)c([N+](=O)[O-])c1Nc1ccc(Cl)nc1Cl [compound 14],100,100,95,100,95,,,,,,,
"O=[N+]([O-])c1cc(C(F)(F)F)c(Cl)c([N+](=O)[O-])c1Nc1ncc(Cl)cc1Cl [compound 4, N-(3,5-dichloro-2-pyridyl)-2,6-dinitro-3-chloro-4-trifluoromethylaniline]",100,100,,93,,< 1,100,100,> 100,100,,
"CC(=O)N(c1ncc(C(F)(F)F)cc1Cl)c1c([N+](=O)[O-])cc(C(F)(F)F)c(Cl)c1[N+](=O)[O-] [compound 88, N-acetyl-N-(3-chloro-5-trifluoromethyl-2-pyridyl)-2,6-dinitro-3-chloro-4-trifluoromethylaniline]",,,,100,,,,,,100,,
O=[N+]([O-])c1cc(C(F)(F)F)c(Cl)c([N+](=O)[O-])c1Nc1nc(Cl)c(C(F)(F)F)cc1Br [compound 33],100,,100,100,100,,,,,85,,
O=[N+]([O-])c1cc(C(F)(F)F)c(Cl)c([N+](=O)[O-])c1Nc1ncc(Br)cc1Cl [compound 20],100,,,,,,,,,100,,
O=[N+]([O-])c1cc(C(F)(F)F)cc([N+](=O)[O-])c1Nc1nc(Cl)c(Br)cc1C(F)(F)F [compound 26],100,90,100,100,85,,,,,93,100,
"O=[N+]([O-])c1cc(C(F)(F)F)cc([N+](=O)[O-])c1Nc1ncc(Cl)cc1Cl [compound 3, N-(3,5-dichloro-2-pyridyl)-2,6-dinitro-4-trifluoromethylaniline]",100,100,100,100,,< 1,10,100,100,,100,100
O=[N+]([O-])c1cc(C(F)(F)F)cc([N+](=O)[O-])c1Nc1nc(Cl)c(C(F)(F)F)cc1Cl [compound 34],100,,100,100,100,,,,,83,100,
"Cc1nc(Nc2c([N+](=O)[O-])cc(C(F)(F)F)c(Cl)c2[N+](=O)[O-])c(Cl)cc1Cl [compound 8, N-(3,5-dichloro-6-methyl-2-pyridyl)2,6-dinitro-3-chloro-4-trifluoromethylaniline]",100,100,,90,,,,,,,,

# Reference: patent US4331670A (priority 1979, dated 1982)
